Reference: paper PMC6920703, “Measuring glycolytic flux in single yeast cells with an orthogonal synthetic biosensor” (Molecular Systems Biology, 2019)

Biological target: T1, wild-type CggR (Bacillus subtilis, UniProt O32253)
T1 sequence (O32253 1-340): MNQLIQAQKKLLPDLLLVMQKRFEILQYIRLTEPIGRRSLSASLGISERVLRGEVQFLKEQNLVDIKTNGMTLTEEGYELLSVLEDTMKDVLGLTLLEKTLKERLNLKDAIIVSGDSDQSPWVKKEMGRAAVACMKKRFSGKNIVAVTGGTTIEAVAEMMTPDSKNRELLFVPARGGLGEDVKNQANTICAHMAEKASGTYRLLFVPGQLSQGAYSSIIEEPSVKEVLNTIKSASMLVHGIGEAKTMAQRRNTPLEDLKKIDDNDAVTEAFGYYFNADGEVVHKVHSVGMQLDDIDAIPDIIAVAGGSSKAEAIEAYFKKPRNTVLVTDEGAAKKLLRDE
Experiment: Thermal shift assay of purified CggR with SYPRO Orange and 0-36 mM FBP (20 to 99 °C in 0.5 °C steps, NaCl counter-ion controls), no DNA; KD from fitting Tm data to a simple cooperative binding model in GraphPad.
Source text: We generated these CggR mutants with site‐directed mutagenesis, expressed in E. coli, purified, and biochemically characterized them. To this end, we used thermal shift assays to assess protein stability and ligand binding.
Figure 5 Biochemical characterization of CggR and respective mutants • Thermal shift assays were used to determine the melting curves of wild‐type CggR and mutants. Error bars correspond to the standard deviation of at least five replicates. • CggR‐FBP affinity constants (KD's) of the wild type and mutant variants, determined by fitting a simple cooperative binding model to the melting curves data. Error bars indicate the 95% confidence intervals. • Quantification of CggR binding to DNA. The CggR bound to DNA fraction was calculated by dividing the intensity of the protein–DNA complex band by the total DNA. The background‐subtracted total intensities of the CggR–DNA complex and the free‐DNA bands were assessed with ImageJ. Error bars correspond to the standard deviation of three replicate experiments for the mutants and six for the wild type. • Summary of the biochemical characterization of the wild type and mutant CggR variants. […]
The K D of the wild type and mutant CggR variants was calculated by fitting the T m data into a simple cooperative model using the GraphPad software.

- Kd: 1000 µM
SMILES: O=P(O)(O)OC[C@H]1OC(O)(COP(=O)(O)O)[C@@H](O)[C@@H]1O (stereo partly shown) [FBP, fructose-1,6-bisphosphate]
